In brackets after ≈: the same amount, converted by molar mass. Like-named read-outs stand apart in the source and are kept apart here.
Test system: S. aureus clinical isolates
Assay: microbe, parasite or virus in culture
Type: cell-based

Compound: CC(=O)NC[C@H]1CN(c2ccc(N3CCOCC3)c(F)c2)C(=O)O1 [Linezolid]
- MIC (S. aureus ATCC 29213, MSSA / VSSA, test date 2018-10-25 (three repeat lines)): 4 µg/mL (≈ 11.9 µM)
- MIC (Staphylococcus aureus, ATCC 29213 / MSSA, S. aureus ATCC 29213, MSSA / VSSA, test date 2018-10-25 (three repeat lines), read-out: MIC): 2 µg/mL (≈ 5.93 µM)
- MIC (Staphylococcus aureus, ATCC 29213 / MSSA, S. aureus ATCC 29213, MSSA / VSSA, test date 2018-11-07, read-out: MIC): 2 µg/mL (≈ 5.93 µM)
- MIC (Staphylococcus aureus, MRSA / NRS 3 / VISA, S. aureus IHMA 1308243, NRS3, MRSA / VISA, read-out: MIC): 1 µg/mL (≈ 2.96 µM)
- MIC (Staphylococcus aureus, MRSA / NRS 4 / VISA, S. aureus IHMA 649380, NRS4, MRSA / VISA, read-out: MIC): 1 µg/mL (≈ 2.96 µM)
- MIC (Staphylococcus aureus, MRSA / NRS 18 / VISA, S. aureus IHMA 649386, NRS18, MRSA / VISA, read-out: MIC): 2 µg/mL (≈ 5.93 µM)
- MIC (Staphylococcus aureus, MRSA / NRS 19 / VISA, S. aureus IHMA 649387, NRS19, MRSA / VISA, read-out: MIC): 0.5 µg/mL (≈ 1.48 µM)
- MIC (Staphylococcus aureus, MRSA / NRS 21 / VISA, S. aureus IHMA 649388, NRS21, MRSA / VISA, read-out: MIC): 1 µg/mL (≈ 2.96 µM)
- MIC (Staphylococcus aureus, MRSA / NRS 22 / USA600 / VISA, S. aureus IHMA 649389, NRS22, MRSA / VISA, USA600, read-out: MIC): 1 µg/mL (≈ 2.96 µM)
- MIC (Staphylococcus aureus, MRSA / NRS 23 / VISA, S. aureus IHMA 649390, NRS23, MRSA / VISA, read-out: MIC): 2 µg/mL (≈ 5.93 µM)
- MIC (Staphylococcus aureus, MRSA / NRS 24 / VISA, S. aureus IHMA 649391, NRS24, MRSA / VISA, read-out: MIC): 1 µg/mL (≈ 2.96 µM)
- MIC (Staphylococcus aureus, MRSA / NRS 26, S. aureus IHMA 649392, NRS26, MRSA / VSSA, read-out: MIC): 1 µg/mL (≈ 2.96 µM)
- MIC (Staphylococcus aureus, MRSA / NRS 27 / VISA, S. aureus IHMA 1308248, NRS27, MRSA / VISA, read-out: MIC): 2 µg/mL (≈ 5.93 µM)
- MIC (Staphylococcus aureus, MRSA / NRS 29 / VISA, S. aureus IHMA 1308250, NRS29, MRSA / VISA, read-out: MIC): 1 µg/mL (≈ 2.96 µM)
- MIC (Staphylococcus aureus, MRSA / NRS 37 / VISA, S. aureus IHMA 1308251, NRS37, MRSA / VISA, read-out: MIC): 1 µg/mL (≈ 2.96 µM)
- MIC (Staphylococcus aureus, MRSA / NRS 54, S. aureus IHMA 1308253, NRS54, MRSA / VSSA* (*Expected VAN intermediate, confirmed VAN susceptible twice), test date 2018-11-07, read-out: MIC): 1 µg/mL (≈ 2.96 µM)
- MIC (Staphylococcus aureus, MRSA / NRS 56 / VISA, S. aureus IHMA 1308254, NRS56, MRSA / VISA, read-out: MIC): 1 µg/mL (≈ 2.96 µM)
- MIC (Staphylococcus aureus, MRSA / USA100 / VRSA, S. aureus IHMA 672230, VRS1, MRSA / VRSA, USA100, read-out: MIC): 1 µg/mL (≈ 2.96 µM)
- MIC (Staphylococcus aureus, MRSA / USA100 / VRSA, S. aureus IHMA 672231, VRS2, MRSA / VRSA, USA100, read-out: MIC): 1 µg/mL (≈ 2.96 µM)
- MIC (Staphylococcus aureus, MRSA / USA100 / VRSA, S. aureus IHMA 672234, VRS4, MRSA / VRSA, USA100, read-out: MIC): 2 µg/mL (≈ 5.93 µM)
- MIC (Staphylococcus aureus, MRSA / USA100 / VRSA, S. aureus IHMA 672235, VRS5, MRSA / VRSA, USA100, read-out: MIC): 2 µg/mL (≈ 5.93 µM)
- MIC (Staphylococcus aureus, MRSA / USA100 / VRSA, S. aureus IHMA 672237, VRS7, MRSA / VRSA, USA100, read-out: MIC): 2 µg/mL (≈ 5.93 µM)
- MIC (Staphylococcus aureus, MRSA / USA100 / VRSA, S. aureus IHMA 672238, VRS8, MRSA / VRSA, USA100, read-out: MIC): 1 µg/mL (≈ 2.96 µM)
- MIC (Staphylococcus aureus, MRSA / USA100 / VRSA, S. aureus IHMA 672239, VRS9, MRSA / VRSA, USA100, read-out: MIC): 1 µg/mL (≈ 2.96 µM)
- MIC (Staphylococcus aureus, MRSA / USA100 / VRSA, S. aureus IHMA 1308256, VRS10, MRSA / VRSA, USA100, read-out: MIC): 4 µg/mL (≈ 11.9 µM)
- MIC (Staphylococcus aureus, MRSA / USA100 / VRSA, S. aureus IHMA 1308258, VRS11b, MRSA / VRSA, USA100, read-out: MIC): 1 µg/mL (≈ 2.96 µM)
- MIC (Staphylococcus aureus, MRSA / USA800 / VRSA, S. aureus IHMA 672233, VRS3b, MRSA / VRSA, USA800, read-out: MIC): 1 µg/mL (≈ 2.96 µM)
- MIC (Staphylococcus aureus, MRSA, S. aureus IHMA 1569509, MRSA / VSSA, read-out: MIC): 4 µg/mL (≈ 11.9 µM)
- MIC (Staphylococcus aureus, MRSA, S. aureus IHMA 1575268, MRSA / VSSA, read-out: MIC): 2 µg/mL (≈ 5.93 µM)
- MIC (Staphylococcus aureus, MRSA, S. aureus IHMA 1575629, MRSA / VSSA, read-out: MIC): 4 µg/mL (≈ 11.9 µM)
- MIC (Staphylococcus aureus, MRSA, S. aureus IHMA 1577820, MRSA / VSSA, read-out: MIC): 2 µg/mL (≈ 5.93 µM)
- MIC (Staphylococcus aureus, MRSA, S. aureus IHMA 1580300, MRSA / VSSA, read-out: MIC): 0.5 µg/mL (≈ 1.48 µM)
- MIC (Staphylococcus aureus, MRSA, S. aureus IHMA 1580940, MRSA / VSSA, read-out: MIC): 2 µg/mL (≈ 5.93 µM)
- MIC (Staphylococcus aureus, MRSA, S. aureus IHMA 1582100, MRSA / VSSA, read-out: MIC): 2 µg/mL (≈ 5.93 µM)
- MIC (Staphylococcus aureus, MRSA, S. aureus IHMA 1583795, MRSA / VSSA, read-out: MIC): 1 µg/mL (≈ 2.96 µM)
- MIC (Staphylococcus aureus, MRSA, S. aureus IHMA 1584223, MRSA / VSSA, read-out: MIC): 4 µg/mL (≈ 11.9 µM)
- MIC (Staphylococcus aureus, MRSA, S. aureus IHMA 1585316, MRSA / VSSA, read-out: MIC): 2 µg/mL (≈ 5.93 µM)
- MIC (Staphylococcus aureus, MRSA, S. aureus IHMA 1586780, MRSA / VSSA, read-out: MIC): 1 µg/mL (≈ 2.96 µM)
- MIC (Staphylococcus aureus, MRSA, S. aureus IHMA 1587322, MRSA / VSSA, read-out: MIC): 2 µg/mL (≈ 5.93 µM)
- MIC (Staphylococcus aureus, MRSA, S. aureus IHMA 1588127, MRSA / VSSA, read-out: MIC): 1 µg/mL (≈ 2.96 µM)
- MIC (Staphylococcus aureus, MRSA, S. aureus IHMA 1591462, MRSA / VSSA, read-out: MIC): 4 µg/mL (≈ 11.9 µM)
- MIC (Staphylococcus aureus, MRSA, S. aureus IHMA 1592755, MRSA / VSSA, read-out: MIC): 2 µg/mL (≈ 5.93 µM)
- MIC (Staphylococcus aureus, MRSA, S. aureus IHMA 1592776, MRSA / VSSA, read-out: MIC): 2 µg/mL (≈ 5.93 µM)
- MIC (Staphylococcus aureus, MRSA, S. aureus IHMA 1597106, MRSA / VSSA, read-out: MIC): 1 µg/mL (≈ 2.96 µM)
- MIC (Staphylococcus aureus, MRSA, S. aureus IHMA 1602095, MRSA / VSSA, read-out: MIC): 4 µg/mL (≈ 11.9 µM)
- MIC (Staphylococcus aureus, MRSA, S. aureus IHMA 1611170, MRSA / VSSA, read-out: MIC): 2 µg/mL (≈ 5.93 µM)
- MIC (Staphylococcus aureus, MRSA, S. aureus IHMA 1611612, MRSA / VSSA, read-out: MIC): 4 µg/mL (≈ 11.9 µM)
- MIC (Staphylococcus aureus, MRSA, S. aureus IHMA 1612228, MRSA / VSSA, read-out: MIC): 2 µg/mL (≈ 5.93 µM)
- MIC (Staphylococcus aureus, MRSA, S. aureus IHMA 1620441, MRSA / VSSA, read-out: MIC): 1 µg/mL (≈ 2.96 µM)

Reference: PMC7561186, “Rational design of balanced dual-targeting antibiotics with limited resistance” (PLoS Biology, 2020)
